# Species on record: Rattus norvegicus
# Assay: Open TG-GATES - Regimen: Daily Repeat
# Assay type: toxicity, organism-based, Sprague-Dawley
# Set-up: regimen Daily Repeat, gender Male, age 6 weeks
# Conditions: in vivo, po, 300 mg/kg, route gavage, dose level High; for APTT / Bas / Eos / Fbg / Hb / Ht / Lym / MCH / MCHC / MCV / Mono / Neu / PT / Plat / RBC / Ret / WBC: tissue Blood; for KIDNEY_L / KIDNEY_R / KIDNEY_TOTAL: tissue Kidney; for LIVER: tissue Liver; for A/G / ALP / ALT / AST / BUN / CRE / Ca / Cl / DBIL / GLC / IP / K / LDH / Na / PL / RALB / TBIL / TC / TG / TP / gamma-GTP: tissue Plasma
smiles,measurement,setting,value
Brc1ccccc1 [BROMOBENZENE],TERMINAL_BW,"72 h, time 3 day",204.3 g
same,APTT,"72 h, time 3 day",21.2 s
same,Bas,"72 h, time 3 day",0.6%
same,Eos,"72 h, time 3 day",1%
same,Fbg,"72 h, time 3 day",259.2 mg/dL
same,Hb,"72 h, time 3 day",13.1 g/dL
same,Ht,"72 h, time 3 day",38.3%
same,Lym,"72 h, time 3 day",78.4%
same,MCH,"72 h, time 3 day",21.2 pg
same,MCHC,"72 h, time 3 day",34.2%
same,MCV,"72 h, time 3 day",62.1 fL
same,Mono,"72 h, time 3 day",3%
same,Neu,"72 h, time 3 day",16.4%
same,PT,"72 h, time 3 day",12 s
same,Plat,"72 h, time 3 day",109.8 x10_4/uL
same,RBC,"72 h, time 3 day",616.6 x10_4/ul
same,Ret,"72 h, time 3 day",4.2%
same,WBC,"72 h, time 3 day",105.2 x10_2/uL
same,KIDNEY_L,"72 h, time 3 day",0.9 g
same,KIDNEY_R,"72 h, time 3 day",0.9 g
same,KIDNEY_TOTAL,"72 h, time 3 day",1.8 g
same,LIVER,"72 h, time 3 day",12 g
same,A/G,"72 h, time 3 day",0.9
same,ALP,"72 h, time 3 day",1821.4 IU/L
same,ALT,"72 h, time 3 day",70.8 IU/L
same,AST,"72 h, time 3 day",110.6 IU/L
same,BUN,"72 h, time 3 day",12.4 mg/dL
same,CRE,"72 h, time 3 day",0.2 mg/dL
same,Ca,"72 h, time 3 day",10.5 mg/dL
same,Cl,"72 h, time 3 day",104.8 meq/L
same,DBIL,"72 h, time 3 day",0.02 mg/dL
same,GLC,"72 h, time 3 day",177.6 mg/dL
same,IP,"72 h, time 3 day",7 mg/dL
same,K,"72 h, time 3 day",4.1 meq/L
same,LDH,"72 h, time 3 day",124.2 IU/L
same,Na,"72 h, time 3 day",141.8 meq/L
same,PL,"72 h, time 3 day",184.6 mg/dL
same,RALB,"72 h, time 3 day",2.6 g/dL
same,TBIL,"72 h, time 3 day",0.08 mg/dL
same,TC,"72 h, time 3 day",96.4 mg/dL
same,TG,"72 h, time 3 day",88.4 mg/dL
same,TP,"72 h, time 3 day",5.4 g/dL
same,gamma-GTP,"72 h, time 3 day",1.4 IU/L
same,TERMINAL_BW,"[…], time 7 day",239.4 g
same,TERMINAL_BW,"[…], time 14 day",287 g
same,TERMINAL_BW,"[…], time 28 day",359.9 g
same,APTT,"[…], time 7 day",17.1 s
same,Bas,"[…], time 7 day",0%
same,Eos,"[…], time 7 day",0.6%
same,Fbg,"[…], time 7 day",278.2 mg/dL
same,Hb,"[…], time 7 day",12.6 g/dL
same,Ht,"[…], time 7 day",36.8%
same,Lym,"[…], time 7 day",74.4%
same,MCH,"[…], time 7 day",21.3 pg
same,MCHC,"[…], time 7 day",34.3%
same,MCV,"[…], time 7 day",62.3 fL
same,Mono,"[…], time 7 day",3.2%
same,Neu,"[…], time 7 day",21.4%
same,PT,"[…], time 7 day",12.4 s
same,Plat,"[…], time 7 day",117.3 x10_4/uL
same,RBC,"[…], time 7 day",591.2 x10_4/ul
same,Ret,"[…], time 7 day",6.9%
same,WBC,"[…], time 7 day",101.2 x10_2/uL
same,APTT,"[…], time 14 day",18.6 s
same,Bas,"[…], time 14 day",0%
same,Eos,"[…], time 14 day",0.6%
same,Fbg,"[…], time 14 day",288.4 mg/dL
same,Hb,"[…], time 14 day",13.4 g/dL
same,Ht,"[…], time 14 day",39.2%
same,Lym,"[…], time 14 day",78.4%
same,MCH,"[…], time 14 day",20.3 pg
same,MCHC,"[…], time 14 day",34.1%
same,MCV,"[…], time 14 day",59.5 fL
same,Mono,"[…], time 14 day",2.6%
same,Neu,"[…], time 14 day",17.8%
same,PT,"[…], time 14 day",12.2 s
same,Plat,"[…], time 14 day",118 x10_4/uL
same,RBC,"[…], time 14 day",658 x10_4/ul
same,Ret,"[…], time 14 day",5.1%
same,WBC,"[…], time 14 day",106.3 x10_2/uL
same,APTT,"[…], time 28 day",18.2 s
same,Bas,"[…], time 28 day",0%
same,Eos,"[…], time 28 day",1%
same,Fbg,"[…], time 28 day",295.8 mg/dL
same,Hb,"[…], time 28 day",14.6 g/dL
same,Ht,"[…], time 28 day",42.5%
same,Lym,"[…], time 28 day",73.2%
same,MCH,"[…], time 28 day",19.1 pg
same,MCHC,"[…], time 28 day",34.4%
same,MCV,"[…], time 28 day",55.5 fL
same,Mono,"[…], time 28 day",2.6%
same,Neu,"[…], time 28 day",23%
same,PT,"[…], time 28 day",12.7 s
same,Plat,"[…], time 28 day",96.5 x10_4/uL
same,RBC,"[…], time 28 day",765 x10_4/ul
same,Ret,"[…], time 28 day",2.5%
same,WBC,"[…], time 28 day",120.7 x10_2/uL
same,KIDNEY_L,"[…], time 7 day",1 g
same,KIDNEY_R,"[…], time 7 day",1 g
same,KIDNEY_TOTAL,"[…], time 7 day",2 g
same,KIDNEY_L,"[…], time 14 day",1.1 g
same,KIDNEY_R,"[…], time 14 day",1.1 g
same,KIDNEY_TOTAL,"[…], time 14 day",2.2 g
same,KIDNEY_L,"[…], time 28 day",1.5 g
same,KIDNEY_R,"[…], time 28 day",1.5 g
same,KIDNEY_TOTAL,"[…], time 28 day",2.9 g
same,LIVER,"[…], time 7 day",13.4 g
same,LIVER,"[…], time 14 day",15.2 g
same,LIVER,"[…], time 28 day",17.7 g
same,A/G,"[…], time 7 day",0.9
same,ALP,"[…], time 7 day",1637 IU/L
same,ALT,"[…], time 7 day",44 IU/L
same,AST,"[…], time 7 day",65.2 IU/L
same,BUN,"[…], time 7 day",12.8 mg/dL
same,CRE,"[…], time 7 day",0.2 mg/dL
same,Ca,"[…], time 7 day",11.3 mg/dL
same,Cl,"[…], time 7 day",105.6 meq/L
same,DBIL,"[…], time 7 day",0.012 mg/dL
same,GLC,"[…], time 7 day",187.4 mg/dL
same,IP,"[…], time 7 day",7 mg/dL
same,K,"[…], time 7 day",4 meq/L
same,LDH,"[…], time 7 day",99.6 IU/L
same,Na,"[…], time 7 day",144.2 meq/L
same,PL,"[…], time 7 day",171.2 mg/dL
same,RALB,"[…], time 7 day",2.8 g/dL
same,TBIL,"[…], time 7 day",0.052 mg/dL
same,TC,"[…], time 7 day",88 mg/dL
same,TG,"[…], time 7 day",94.8 mg/dL
same,TP,"[…], time 7 day",6 g/dL
same,gamma-GTP,"[…], time 7 day",1 IU/L
same,A/G,"[…], time 14 day",0.8
same,ALP,"[…], time 14 day",1442.4 IU/L
same,ALT,"[…], time 14 day",45.8 IU/L
same,AST,"[…], time 14 day",69.4 IU/L
same,BUN,"[…], time 14 day",15 mg/dL
same,CRE,"[…], time 14 day",0.2 mg/dL
same,Ca,"[…], time 14 day",10.8 mg/dL
same,Cl,"[…], time 14 day",106.4 meq/L
same,DBIL,"[…], time 14 day",0.01 mg/dL
same,GLC,"[…], time 14 day",185.2 mg/dL
same,IP,"[…], time 14 day",6.4 mg/dL
same,K,"[…], time 14 day",4 meq/L
same,LDH,"[…], time 14 day",63.2 IU/L
same,Na,"[…], time 14 day",144 meq/L
same,PL,"[…], time 14 day",180.4 mg/dL
same,RALB,"[…], time 14 day",2.8 g/dL
same,TBIL,"[…], time 14 day",0.04 mg/dL
same,TC,"[…], time 14 day",89.4 mg/dL
same,TG,"[…], time 14 day",123.2 mg/dL
same,TP,"[…], time 14 day",6.1 g/dL
same,gamma-GTP,"[…], time 14 day",1.2 IU/L
same,A/G,"[…], time 28 day",0.8
same,ALP,"[…], time 28 day",1183.4 IU/L
same,ALT,"[…], time 28 day",42.8 IU/L
same,AST,"[…], time 28 day",65.4 IU/L
same,BUN,"[…], time 28 day",15.2 mg/dL
same,CRE,"[…], time 28 day",0.2 mg/dL
same,Ca,"[…], time 28 day",10.4 mg/dL
same,Cl,"[…], time 28 day",106.8 meq/L
same,DBIL,"[…], time 28 day",0.022 mg/dL
same,GLC,"[…], time 28 day",185.2 mg/dL
same,IP,"[…], time 28 day",5.6 mg/dL
same,K,"[…], time 28 day",4 meq/L
same,LDH,"[…], time 28 day",73 IU/L
same,Na,"[…], time 28 day",143.4 meq/L
same,PL,"[…], time 28 day",165.4 mg/dL
same,RALB,"[…], time 28 day",2.7 g/dL
same,TBIL,"[…], time 28 day",0.048 mg/dL
same,TC,"[…], time 28 day",79.8 mg/dL
same,TG,"[…], time 28 day",154.2 mg/dL
same,TP,"[…], time 28 day",6.2 g/dL
same,gamma-GTP,"[…], time 28 day",1.2 IU/L

# Source: ChEMBL document CHEMBL3885861, “Open TG-GATES”
